Results reported in patent US11191850B2, “Molecular probes for detection and imaging of pancreatic cancer” (Portland State University, priority 2016, dated 2021).
Entries after “also recorded” stand apart in the source; their conditions may differ. Where two headings read alike, the source gives them in different places.

Assays:
[1] = UV-Vis absorption and fluorescence spectroscopy; format: physicochemical; parameters: Brightness: unit not given here; conditions: for pH and solvent sensitivity of UV and fluorescence spectra: 10-15 μM, aqueous 10% DMSO with HCl, NaOH or pH 7.4 buffer, various solvents; for Extinction coefficient / λmax abs: pH 7.4 phosphate buffer, 10% DMSO; for Quantum yield / λmax em / Brightness / Stokes shift: pH 7.4 buffer
Excerpt: UV-Vis absorption and fluorescence spectroscopy. UV-Vis spectra were collected with a Cary 50 UV-Vis spectrophotometer at room temperature, using a 1-cm quartz cuvette. Fluorescence spectra were collected on a Cary Eclipse fluorescence spectrophotometer (Agilent Technologies). All absorbance spectra were reference corrected. Fluorescence spectra were corrected for the wavelength dependent response of the R928 photomultiplier tube using a manufacturer generated correction file. Quantum yields are reported as the average of multiple measurements using multiple references. Excitation emission matrices (EEMs) were collected over various spectral regions, using 5-nm step sizes for emission and 10-nm step sizes for excitation. The band pass for excitation and emission was 5 to 10 nm.
Probes 1-13 were screened for pH and solvent sensitivity. Solvent sensitivity or dependence is at least partially attributable to differences in the equilibria between tautomeric forms of the compounds in the various solvents evaluated. The fluorophore concentrations ranged from 10-15 μM. Aqueous solutions contained 10% DMSO and 12.5 mM HCl, 12.5 mM NaOH, or pH 7.4 phosphate buffer.

[2] = tested on: healthy CD-1 mice; assay: In vivo biodistribution imaging after systemic administration; conditions: for clearance route and rate: 100 nmol i.v. (MB 120 nmol); for organ accumulation (in vivo biodistribution): 100 nmol i.v., 4 h distribution phase; for pancreas penetration / specificity: normal pancreas, systemic administration
Procedure: (§2) Animals. Approval for the use of all animals in this study was obtained from the Institutional Animal Care and Use Committee (IACUC) at Oregon Health and Science University (OHSU). Male CD-1 mice weighing 22-24 g were purchased from Charles River Laboratories (Wilmington, MA). […] All animals were placed on 5V75 chlorophyll free diet from TestDiet (St. Louis, Mo.) 1 week prior to any imaging studies. Prior to surgery, mice were anaesthetized with 100 mg/kg ketamine and 10 mg/kg xylazine (Patterson Veterinary, Devens, Mass.). The peritoneal cavity was surgically exposed by removal of overlaying skin and muscle tissue to image fluorophore biodistribution following intravenous injection.
(§3) Intraoperative fluorescence imaging system. In vivo murine biodistribution images and macroscopic images of resected tissues were acquired using a custom-built small animal imaging system capable of real time color and fluorescence imaging. The imaging system consists of a QImaging EXi Blue monochrome camera (Surrey, British Columbia, Calif.) for fluorescence detection with a removable Bayer filter for collecting co-registered color and fluorescence images. A PhotoFluor II light source (89 North, Burlington, Vt.) was focused onto the surgical field through a liquid light guide and used unfiltered for white light illumination. […] All filters were obtained from Chroma technology (Bellows Falls, Vt.). Camera exposure times ranged from 50 to 200 ms for fluorescence image collection.
(§4) Systemic administration of fluorescent compounds. […] Fluorophores were diluted in PBS. For comparison with previous studies, 120 nmol Methylene Blue was injected systemically. Mice were administered blank PBS for control images (n=3 mice per group, 5 groups).
(§5) In vivo biodistribution imaging. […] The peritoneal cavity was exposed and images were collected so that the bladder, adipose tissue, intestine, kidney, liver, muscle, pancreas, spleen, and stomach were visible within the field of view. For initial biodistribution studies images were collected immediately after injection and at 5, 15, 30, 60, 120, and 240 min following injection. […] Vehicle injected control animals were imaged on the same time course as fluorophore injected animals for initial testing or immediately following injection only for studies involving MB or PDAC tumor bearing mice to assess tissue autofluorescence for comparison to injected animals.
(§6) Fluorophore biodistribution kinetics were measured using region of interest analysis on images collected of the peritoneal cavity. Mean fluorescence intensities in each organ or tissue type were measured from images collected at each time point. All intensities were normalized to the muscle intensity at that time point by dividing by the measured muscle intensity. Using the normalized fluorescence intensities for each organ or tissue type, mean intensities were calculated for each group.
(§7) Upon completion of initial biodistribution studies, animals were euthanized and their organs were resected.

[3] = tested on: Capan-1 cells; assay: In vitro time-dependent fluorophore uptake; format: cell-based, human; conditions: Capan-1, 10 μM
Procedure: (§1) Cell culture. The human PDAC cell line Capan-1 was obtained from Dr. Rosalie Sears' laboratory and maintained in RPMI medium (Gibco) in a humid atmosphere at 37° C. with 5% CO2. All media were supplemented with 10% (v/v) fetal bovine serum (FBS), and 1% (v/v) penicillin/streptomycin. The cell viability was determined by Cell Titer-Blue® assay (Promega Corporation). Monolayers of 10^4 Capan-1 cells were seeded in triplicate in 96 well plates and incubated with decreasing concentration from 100 μM of each compound in growth media containing 10% FBS. After 24 h incubation time, 20 μL of CellTiter-Blue® reagent was added into each well, and culture cells were incubated for additional 2 h. Fluorescence intensity in each well was recorded at 560/590 nm in a SpectraMax® M5 Microplate Reader (Molecular Devices, LLC). The half maximal inhibitory concentration (IC50) of these three compounds were determined from interpolating values in the graph (% cell viability vs. fluorophore concentration). For comparison of cellular uptake rate in Capan-1 cells, absorbance of media was measured as background, and absorbance of supernatant was obtained to determine the cellular uptake by using absorbance of 10 μM fluorophore in cell free media as standard reference.
In vitro time-dependent fluorophore uptake was also investigated in Capan-1 cells. […]

[4] = tested on: Capan-1 cells; assay: Subcellular localization by live cell imaging with organelle trackers; format: cell-based, human; conditions: Capan-1, 0.5 μM, 1 h incubation
Procedure: In vitro live cell imaging. Monolayers of 10^4 Capan-1 cells were seeded in triplicate in 8 well plates and incubated for 24 h in growth media containing 10% FBS and allowed to attach. For subcellular colocalization experiments, media was extracted and cells were washed with PBS, and phenol red-free growth medium was added to each well. Organelle trackers were added to each well, and incubated with the compound (final concentration 0.5 μM) of interest for 1 h. Cells were then washed with PBS and then fixed with 2% paraformaldehyde (PFA). Fluorescence microscopy was carried out using a Zeiss inverted microscope with an Axioscan fluorescence camera for imaging. Final concentration of organelle trackers used in this experiments, DAPI (4,6-diamidino-2-phenylindole) 0.5 μM, MitoTracker® Green (benzoxazolium 2-[3-[5,6-dichloro-1,3-bis[[4-(chloromethyl)-phenyl]methyl]-1,3-dihydro-2H-benzimidazol-2-ylidene]-1-propenyl]-3-methyl-chloride 201860-17-5v, ThermoFisher Scientific) 0.5 μM, and ER-Tracker™ Green (BODIPY® FL dye and glibenclamide; ThermoFisher Scientific) 1 μM.
The subcellular localization of 2, 12 and 13 was investigated in Capan-1 cells after 1 h incubation time. […] FIGS. 6A, 7A, and 8A show the red fluorescence of the three compounds, respectively, as well as blue fluorescence with DAPI (4,6-diamidino-2-phenylindole) FIGS. 6C, 7C, 8C) and green fluorescence with organelle-specific fluorescent probes—ER-Tracker™ Green (BODIPY® FL dye and glibenclamide; ThermoFisher Scientific) (FIGS. 6E, 7E, 8E) and MitoTracker® Green (benzoxazolium 2-[3-[5,6-dichloro-1,3-bis[[4-(chloromethyl)-phenyl]methyl]-1,3-dihydro-2H-benzimidazol-2-ylidene]-1-propenyl]-3-methyl-chloride201860-17-5v; ThermoFisher Scientific) (FIGS. 6G, 7G, 8G). Also shown are composite overlays of (i) phase contrast+compound fluorescence (FIGS. 6B, 7B, 8B), (ii) DAPI+compound fluorescence (FIGS. 6D, 7D, 8D), (iii) DAPI+ER-Tracker™ Green+compound fluorescence (FIGS. 6F, 7F, 8F), and (iv) DAPI+MitoTracker® Green+compound fluorescence (FIGS. 6H, 7H, 8H).

[5] = tested on: pancreas tissue; assay: Ex vivo staining of pancreas tissue from healthy and PDAC mice; parameters: species or system mouse
Excerpt: Thus 12 enabled ex vivo staining to distinguish the features of healthy and PDAC tissue.

[6] = tested on: Capan-1 cells; assay: Cell viability by CellTiter-Blue assay; format: cell-based, human; conditions: Capan-1, 24 h incubation, read-out: IC50 (cytotoxicity, cell viability)
Procedure: as §1
In vitro cell viability was assessed for compounds 2, 12 and 13 in a representative PDAC cell line, Capan-1. […]

[7] = tested on: PDAC tumor tissue; assay: Intraoperative fluorescence imaging and ex vivo microscopy in PDAC tumor bearing mice; parameters: species or system mouse; conditions: 100 nmol systemic, n=5 PDAC mice, monitored over 1.5 h
Procedure: Systemic administration of fluorescent compounds. […] Fluorophores were diluted in PBS.
In vivo biodistribution imaging.
Ex vivo fluorescence microscopy, pathology, and immunofluorescence staining. Resected pancreas tissue from compound 12 in vivo biodistribution studies with PDAC tumor bearing mice was fixed with 2% PFA for 12 h, flash frozen in optimal cutting temperature (OCT) compound with liquid nitrogen, and stored at −80° C. Cryosections were cut at 10 μm onto Superfrost Plus slides (Fisherbrand, Fisher Scientific). Slides were mounted with Fluoromount-G (Southern Biotech, Birmingham, Ala.) and coverslipped. […] Images were acquired on an Axio Observer inverted fluorescence microscope (Zeiss, Thornwood, N.Y.) at 10, 20, or 40× magnification. […] Color images were collected using an Axiocam 105 camera (Zeiss) and fluorescence images were collected using an Axiocam 506 camera (Zeiss) where a 605±35 nm or 525±25 nm bandpass emission filter was used for compound 12 or Atto 488 fluorescence image collection, respectively.
Compound 12 was systemically administered to n=5 genetically modified PDAC mice. Pancreas specific fluorescence was monitored over 1.5 h. […] FIGS. 12B and 12C show real-time intraoperative fluorescence imaging of compound 12 in the PDAC mice. […]

[8] = tested on: healthy CD-1 mice; conditions: mouse, in vivo, iv
Procedure: as §2, §3, §4, §5, §6, §7

Extinction coefficient ([1]; methyl ether derivatives) | pancreas penetration / specificity [2] | Compound | pH and solvent sensitivity of UV and fluorescence spectra [1] | clearance route and rate [2] | organ accumulation (in vivo biodistribution) [2] | fluorophore uptake within 30 min of application (ranking) [3] | site of intracellular localization [4] | IC50 [6] [µM] | further results
15,610 M^−1 · cm^−1 | improved pancreas specificity | COC(=O)c1ccccc1-c1c2ccc(=O)cc-2oc2c1ccc1cccc(OC)c12 [Compound 2] | not affected by either solvent changes or by solution pH values above 2 | significant renal clearance; also recorded: faster renal clearance than compounds 12 and 13 | preferentially accumulated in the pancreas, intestine and bladder | the lowest | within vesicular structures |  | 
17764 M⁻¹ cm⁻¹ | improved pancreas specificity | COC(=O)c1ccccc1C1=c2cc3c4c(c2Oc2c1ccc1cccc(OC)c21)CCC[N+]=4CCC3 [Compound 12, 15-methoxy-9-(2-(methoxycarbonyl)phenyl)-1,2,3,5,6,7-hexahydrobenzo[7,8]chromeno[2,3-f]pyrido[3,2,1-ij]quinolin-4-ium chloride] | insensitive to variations in pH or solvent | both renal and hepatic clearance; also recorded: cleared more slowly than compound 2; also recorded: greater hepatic excretion rate | accumulated in the kidney, pancreas, and intestine |  | extensive accumulation in the mitochondria | 17.8 | Quantum yield ([1]; excited at 480 nm): 11.38%; λmax em ([1]; excited at 480 nm): 622 nm; Brightness ([1]; methyl ether derivatives): 2022; Stokes shift ([1]; methyl ether derivatives): 40 nm; λmax abs ([1]; methyl ether derivatives): 582 nm; ex vivo staining localization, cancerous (PDAC) tissue ([5]; PDAC mouse pancreas): localized in the PDAC-associated ductal epithelial cells; ex vivo staining localization, healthy mouse pancreas tissue ([5]; healthy mouse pancreas): uptake of 12 in its abundant acinar cell population; fluorescence SBR in the pancreas compared to surrounding organs ([2]; 4-h time point): highest and most persistent fluorescence SBR in the pancreas; uptake in normal pancreas tissue relative to MB ([2]; 12 100 nmol vs MB 120 nmol, i.v.): 4 fold; accumulation in PDAC tumor tissue vs surrounding tissue [7]: significantly higher than in the surrounding healthy tissue; also recorded: significantly higher than in the surrounding tissues and specific for the malignant cells
 | diminished pancreas accumulation | COC(=O)c1ccccc1C1=c2cc3c4c(c2Oc2c1ccc1cccc(N)c21)CCC[N+]=4CCC3 [Compound 13, 15-amino-9-(2-(methoxycarbonyl)phenyl)-1,2,3,5,6,7-hexahydrobenzo[7,8]chromeno[2,3-f]pyrido[3,2,1-ij]quinolin-4-ium chloride] | not pH dependent, but were modestly solvent sensitive | cleared more slowly than compound 2 | accumulated largely in the kidneys | greatest fluorophore uptake | extensive accumulation in the mitochondria | 26.1 | Quantum yield ([1]; excited at 630 nm): 0.66%; λmax em ([1]; excited at 630 nm): 740 nm; Brightness ([1]; seminaphthorhodamines): 85; Stokes shift ([1]; seminaphthorhodamines): 139 nm; Extinction coefficient ([1]; seminaphthorhodamines): 12808 M⁻¹ cm⁻¹; λmax abs ([1]; seminaphthorhodamines): 601 nm

Compound | Extinction coefficient ([1]; methyl ether derivatives) | pancreas penetration / specificity [2] | pH and solvent sensitivity of UV and fluorescence spectra [1] | clearance route and rate [2] | organ accumulation (in vivo biodistribution) [2] | fluorophore uptake within 30 min of application (ranking) [3] | site of intracellular localization [4] | IC50 [6] [µM] | further results
CN(C)c1ccc2nc3ccc(=[N+](C)C)cc-3sc2c1 [MB, methylene blue, reference compound] |  | poor penetration into normal pancreas tissue; also recorded: diminished pancreas accumulation |  |  |  |  |  |  | clearance route and rate [8]: preferentially and rapidly cleared through the renal system
